The values that follow come from patent publication US20070191299A1, “Extension Of The Expression of Transgenic Proteins By Immunomodulation” (priority 1997, published 2007).

Assay [1] deals with human alpha 1-antitrypsin reporter gene expression. Kind of assay: Serum level of human α1-antitrypsin reporter after adenovirus administration (Example 2). The class given is in vivo. Further details: average serum level of human α1-antitrypsin: unit not given here. The following applies: NMRI mice. The method, then:
(§1) On day 0, all mice were administered-a dose of 1×10^10 adenoviruses via the tail vein. The recombinant adenoviruses carry the gene for human alpha 1-antitrypsin as a reporter gene found in the serum. This gene has proven to be a practicable reporter, since it is not antigenic in the mouse, but nevertheless can be differentiated from murine alpha 1-antitrypsin using a specific antibody. The half-life of the antiprotease is approximately 3-4 days, so that the serum level reflects the current synthesis capacity of the liver very well.
(§2) The total collective was subdivided into five groups of 4 animals each, which were treated as follows: • 1st group: control group—no immunosuppressant treatment, administration of saline solution i.p. for the period of 5 days after virus administration. • 2nd . group: FK 506 group—administration of 1 mg/kg/day of FK 506 i.p. beginning 1 day before virus administration and then for a period of 5 days. • 3rd group: cyclosporin A group—administration of 20 mg/kg/day i.p. beginning 1 day before virus administration and then for a period of 5 days. • 4th group: DSG group—administration of 10 mg/kg/day i.p. beginning 1 day before virus administration and then for the period of 5 days. • 5th group: DSG++ group—administration of 10 mg/kg/day i.p. beginning 1 day before virus administration and then daily for the period of five days and then twice weekly for the period of 150 days.
(§3) NMRI mice were used, since these mice, due to their genetic heterogeneity, develop an immunological reaction pattern which approaches that of a human population more closely than pure inbred strains; the price is an increased variability in the immunological reactivity. In spite of this, the individual groups develop significant reaction patterns.

In assay [2] the test system is antibodies after recombinant adenovirus vector administration. Kind of assay: Formation of antibodies after vector administration (Example 1). The class given is in vivo. Conditions: mice; cyclosporin A 50-100 mg/kg/day, DSG 10 mg/kg/day for 21 days after recombinant adenovirus. Here is the method: Cyclosporin A (50-100 mg/kg/day) and DSG (10 mg/kg/day) was administered to the mice over a period of 21 days after administration of a recombinant adenovirus (reporter gene β-galactosidase; Bett et al. Proc. Natl. Acad. Sci. USA, 91 (1994), pages 8802-8806).
In the control group, it was possible to detect the formation of antibodies even 5 days after vector administration.

Assay [3] has as its system antibody load against viral proteins. Kind of assay: Mean antibody titer against viral proteins after adenovirus administration (Example 2). The class given is in vivo. Conditions: NMRI mice. Here is the method: as §1, §2, §3
The quantitative factor 15 days after discontinuing DSG is approximately 1.8. Continuous treatment (2× weekly) is no longer able to increase this effect dramatically. […] Even the transient administration of DSG reduces the antibody response in comparison with the control by more than 60% with, at the same time, a markedly positive effect on expression.

In assay [4] the test system is reporter gene β-galactosidase expression in the liver. Description: Reporter gene (β-galactosidase) expression in the liver after recombinant adenovirus administration (Example 1). The class given is in vivo, mice.
[5] abbreviates: day 5, i.p. from 1 day before virus then for 5 days (FK 506 1, cyclosporin A 20, DSG 10 mg/kg/day).
Where [6] appears, read: day 10, i.p. from 1 day before virus then for 5 days (FK 506 1, cyclosporin A 20, DSG 10 mg/kg/day).
Setting [7] is: day 20, i.p. from 1 day before virus then for 5 days (FK 506 1, cyclosporin A 20, DSG 10 mg/kg/day).
Where [8] appears, read: day 30, DSG++ group: 10 mg/kg/day i.p. from 1 day before virus, daily for five days, then twice weekly for 150 days.
Setting [9] is: day 30, i.p. from 1 day before virus then for 5 days (FK 506 1, cyclosporin A 20, DSG 10 mg/kg/day).
Where [10] appears, read: day 60, i.p. from 1 day before virus then for 5 days (FK 506 1, cyclosporin A 20, DSG 10 mg/kg/day).
Where [11] appears, read: day 100, DSG++ group: 10 mg/kg/day i.p. from 1 day before virus, daily for five days, then twice weekly for 150 days.
The mark [12] stands for this setting: day 100, i.p. from 1 day before virus then for 5 days (FK 506 1, cyclosporin A 20, DSG 10 mg/kg/day).
Where [13] appears, read: day 150, DSG++ group: 10 mg/kg/day i.p. from 1 day before virus, daily for five days, then twice weekly for 150 days.
The mark [14] stands for this setting: day 150, i.p. from 1 day before virus then for 5 days (FK 506 1, cyclosporin A 20, DSG 10 mg/kg/day).
[15] abbreviates: day 200, DSG++ group: 10 mg/kg/day i.p. from 1 day before virus, daily for five days, then twice weekly for 150 days.
The mark [16] stands for this setting: day 200, i.p. from 1 day before virus then for 5 days (FK 506 1, cyclosporin A 20, DSG 10 mg/kg/day).
Setting [17] is: mice treated with DSG only for 5 days after vector administration, 42nd day after vector administration.

Each structure is given as a SMILES string.

On to `Cl.Cl.Cl.N=C(N)NCCCCCCC(=O)NC(O)C(=O)NCCCCNCCCN` (stereo not shown) [DSG, 1-amino-19-guanidine-11-hydroxy-4,9,12-triazanondecane-10,13-dione trihydrochloride], for which the “effect on antitrypsin expression” value in assay [1] (5-day treatment with DSG) was “marked increase and prolongation of antitrypsin expression”. Also, the “quantitative factor (transgenic expression product of immunosuppressed group / nonimmunosuppressed control group)” value in assay [1] (15 days after discontinuing DSG (5-day treatment, 10 mg/kg/day i.p.)) is on record as “approximately 1.8”. Further, the “expression with continuous treatment compared with transient administration” value in assay [1] (continuous DSG treatment (2× weekly) versus transient administration) is listed as “only slightly increased”. In addition, the “average serum level of human α1-antitrypsin” value (shortened to “average serum level”) in assay [1] (day 5, DSG++ group: 10 mg/kg/day i.p. from 1 day before virus, daily for five days, then twice weekly for 150 days) was determined as 2775000; in assay [1] (setting [5]) it was 2775000; in assay [1] (day 10, DSG++ group: 10 mg/kg/day i.p. from 1 day before virus, daily for five days, then twice weekly for 150 days), 677500; in assay [1] (setting [6]) it was 1560000; in assay [1] (day 20, DSG++ group: 10 mg/kg/day i.p. from 1 day before virus, daily for five days, then twice weekly for 150 days), 1178750; in assay [1] (setting [7]) it was 1826250. The “average serum level” value in assay [1] (setting [8]) came out at 1082500; in assay [1] (setting [9]) it was 1001250; in assay [1] (day 60, DSG++ group: 10 mg/kg/day i.p. from 1 day before virus, daily for five days, then twice weekly for 150 days) it was 297500; in assay [1] (setting [10]), 213500; in assay [1] (setting [11]), 68750; in assay [1] (setting [12]), 51750. Further, the “average serum level” value stood at 17125 in assay [1] (setting [13]), 13125 in assay [1] (setting [14]), 14350 in assay [1] (setting [15]) and 10625 in assay [1] (setting [16]). In assay [2], the antibody production result is on record as “completely eliminated”. Besides, the “reduction of antibody load against viral proteins” value in assay [3] (continuous DSG treatment (2× weekly), after 150 days) is “approximately 90%”. For the same compound, the Mean antibody titer in assay [3] (setting [8]) is on record as 13005; in assay [3] (setting [9]), 26310; in assay [3] (setting [11]) it was 11251; in assay [3] (setting [12]) it was 31029; in assay [3] (setting [13]) it was 7335; in assay [3] (setting [14]) it was 25149. Moreover, the Mean antibody titer in assay [3] (setting [15]) is 9669; in assay [3] (setting [16]) it was 20586. Moreover, the “reduction of antibody response in comparison with the control” value in assay [3] (transient administration of DSG (5 days)) is reported as “more than 60%”. Moreover, the “proportion of animals with expression still measurable” value in assay [4] (setting [17]) is “approximately 50%”. For the same compound, the “reporter gene expression relative to the maximal expression” value in assay [4] (setting [17]) is reported as “approximately 10%”. The “reporter gene expression after discontinuing the immunosuppressants” value in assay [4] (mice, 21 days after discontinuing 21-day treatment (42 days after vector administration)) is recorded as “a massive gene expression was still detectable”. In addition, in assay [4] (mice, cyclosporin A 50-100 mg/kg/day, DSG 10 mg/kg/day for 21 days after recombinant adenovirus, treatment period of 21 days), the “reporter gene expression in the liver over the treatment period” value was “continues undecreased”.
In the case of `C=CC[C@@H]1/C=C(\C)C[C@H](C)C[C@H](OC)[C@H]2O[C@@](O)(C(=O)C(=O)N3CCCC[C@H]3C(=O)O[C@H](/C(C)=C/[C@@H]3CC[C@@H](O)[C@H](OC)C3)[C@H](C)[C@@H](O)CC1=O)[C@H](C)C[C@@H]2OC` [FK 506], the “average serum level” value in assay [1] (setting [5]) is 1725000; in assay [1] (setting [6]), 1278750; in assay [1] (setting [7]), 376250; in assay [1] (setting [9]), 17475; in assay [1] (setting [10]), 4258; in assay [1] (setting [12]), 313. Besides, the “average serum level” value in assay [1] (setting [14]) and in assay [1] (setting [16]) was 1.5 each time. Also, the Mean antibody titer is reported as 65536 in assay [3] (setting [9]), 43832 in assay [3] (setting [12]), 25149 in assay [3] (setting [14]) and 17710 in assay [3] (setting [16]).
